Earlier results as cited in US10179172B2, “Liquid pharmaceutical formulations for injection comprising yellow 5 or orange G and uses thereof” (EAGLE BIOLOGICS, INC., priority 2013, dated 2019).
“And” between values parts separate entries of the source, which are not always exact repeats. Identical values can stand only once.

What was measured:
[1] = tested on: respiratory syncytial virus; settings: two Phase III clinical trials, pediatric population
[2] = long-term clinical outcomes

Substance: palivizumab: humanized mAb directed against an epitope in the A antigenic site of the F protein of respiratory syncytial virus
- Reduction of the risk of hospitalization due to respiratory syncytial virus infection [1]: 55% and 45%

Substance: vedolizumab: mAb being developed by Millennium Pharmaceuticals for ulcerative colitis and Crohn's disease
- Patients achieving clinical remission [2]: ~60%
